From US12071411B2, “Inhibitors of HIF-2α and methods of use thereof” (ARCUS BIOSCIENCES, INC., priority 2021, dated 2024)

Key:
HIF-2α [1] = target: T1, HIF-2α (Homo sapiens, UniProt Q99814); assay: HIF-2α Luciferase Reporter Assay (serum free) in HIF-Luc-786-0 cells; type: cell-based; details: Opti-MEM, 786-0 reporter cells, 20 hours incubation
Procedure: (§1) Generation of HIF-2α Luciferase 786-0 Cell Line:
(§2) Stable cell lines were generated by transducing 786-0 cells (ATCC, CRL-1932) with Cignal Lenti HIF Luc Reporter lentivirus (CLS-007L, Qiagen) according to the manufacturer's guidelines. In brief, 0.3×10^6 786-0 cells were transduced with lentivirus at a multiplicity of infection (MOI) of 25 for 24 hours. After transduction, cells were replenished with fresh RPMI 1640 Medium (Cat. No. 11875085, Thermo Fisher) supplemented with 10% FBS (Cat. No. A3160502, Gibco), 2 mM GlutaMAX™ (Cat. No. 35050-061, Invitrogen) and 100 units of penicillin and 100 μg of streptomycin/mL (Cat. No 15070063, Thermo Fisher) for another 24 hours. Antibiotic selection was performed in cell media containing 4 μg/mL of puromycin. After 7 days of antibiotic selection, stable pools of surviving cells were expanded and used in a luciferase reporter assay.
HIF-2α Luciferase Reporter Assay (Serum Free):
On day one, 20 uL of HIF-Luc-786-0 cells in Opti-MEM™ (Cat. No. 31985088, Thermo Fisher) were seeded into each well of a 384 well white opaque plate (Corning 3570) and incubated at 37° C. and 5% CO2. Twenty microliters of 2× test compounds in Opti-MEM™ were added to cells after 4 hours of incubation. Final assay conditions comprised 20,000 cells per well in 1% DMSO with test compound concentrations ranging from 50 uM to 0 uM. After 20 hours incubation at 37° C. and 5% CO2, luciferase activity was determined using ONE-Glo™ Luciferase Assay Reagent (E6110, Promega) following the manufacture's recommended procedure. Briefly, 40 uL of ONE-Glo™ luciferase reagents were added to each well and luciferase signals were measured using an Envision 2102 Multilabel Reader. Percentage maximum activity in each test well was calculated based on DMSO (maximum activity) and no cell control wells (baseline activity). The IC50 values of the test compounds were determined from compound dose response curves fitted using a standard four parameter fit equation.

HIF-2α [2] = target: T1, HIF-2α; assay: HIF-2α Luciferase Reporter Assay (serum), HRE-luciferase 786-0 cells in 100% human serum; type: cell-based; details: for IC50: 100% human serum, 786-0 reporter cells, overnight incubation, read-out: Serum Potency; for Serum Shift (approximate): ratio of IC50 in 100% serum to IC50 in serum free conditions
Procedure: as §1, §2
HIF-2α Luciferase Reporter Assay (Serum):
An HRE-luciferase stable reporter 786-0 cell line was maintained in active culture using RPMI 1640 (GIBCO) media supplemented with 1% penicillin-streptomycin, 1% GlutaMAX™, 10% FBS-One Shot (GIBCO) and 4 ug/ml of puromycin (Invitrogen). On the day of the assay, cells were harvested using StemPro™ Accutase™ cell dissociation reagent (GIBCO) and resuspended at 1.5 million cells per milliliter in Opti-MEM™ (GIBCO). 20 ul/well of the resuspended cells were dispensed into a 384 white tissue culture-treated microplate (Corning) and allowed to incubate at 37° C., 5% CO2 for 3 hours. Compounds were prepared by dispensing 0.8 ul of compound in 100% DMSO into a Greiner plate containing 40 ul/well of 100% human serum (Bioreclamation IVT). After 3 hours, media was removed via centrifugation at 500 RPM for 30 seconds and 30 ul/well of compound diluted in human serum was added. The plate was incubated overnight at 37° C., 5% CO2. The following day, ONE-Glo™ was prepared per vendors instructions. The cell plate was removed from the incubator and the human serum was removed from the plate using centrifugation at 500 RPM for 30 seconds. Following the removal of human serum, 40 ul/well of room temperature Opti-MEM™ was added to the plate and allowed to equilibrate to room temperature for 2 hours. 40 ul/well of ONE-Glo™ reagent was added and allowed to incubate for 10 minutes before reading the luminescence signal on the Envision (PerkinElmer). Data was analyzed using 4-parameter logistic equation to generate IC50.

T1 sequence (Q99814 whole entry): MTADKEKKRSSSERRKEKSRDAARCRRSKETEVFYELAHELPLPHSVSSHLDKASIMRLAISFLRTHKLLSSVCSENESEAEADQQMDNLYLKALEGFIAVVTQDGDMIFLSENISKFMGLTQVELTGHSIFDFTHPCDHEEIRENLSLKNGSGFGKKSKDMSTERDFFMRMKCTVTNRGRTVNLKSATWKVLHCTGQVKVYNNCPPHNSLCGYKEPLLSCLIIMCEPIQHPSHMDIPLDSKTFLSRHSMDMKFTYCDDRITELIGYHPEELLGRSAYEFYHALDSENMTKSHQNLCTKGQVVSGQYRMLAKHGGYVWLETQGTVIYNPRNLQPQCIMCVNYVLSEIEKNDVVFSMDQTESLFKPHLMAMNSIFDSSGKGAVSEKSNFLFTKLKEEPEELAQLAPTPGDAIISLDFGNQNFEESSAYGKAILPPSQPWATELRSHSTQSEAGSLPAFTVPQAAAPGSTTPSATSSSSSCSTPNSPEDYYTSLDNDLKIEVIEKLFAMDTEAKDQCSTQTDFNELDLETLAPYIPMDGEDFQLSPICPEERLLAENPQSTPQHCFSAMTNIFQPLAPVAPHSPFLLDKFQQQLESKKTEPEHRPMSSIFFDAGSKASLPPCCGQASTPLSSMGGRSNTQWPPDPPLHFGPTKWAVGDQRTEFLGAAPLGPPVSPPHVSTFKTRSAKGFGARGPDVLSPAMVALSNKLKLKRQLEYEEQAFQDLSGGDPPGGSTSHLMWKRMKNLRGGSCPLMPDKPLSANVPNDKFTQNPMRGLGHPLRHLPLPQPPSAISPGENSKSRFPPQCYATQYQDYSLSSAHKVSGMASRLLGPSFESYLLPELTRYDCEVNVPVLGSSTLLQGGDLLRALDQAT

| Compound | IC50 (HIF-2α [1]) | IC50 (HIF-2α [2]) | Serum Shift (approximate) (HIF-2α [2]) |
| --- | --- | --- | --- |
| O[C@H]1c2c(C(F)(F)F)nn([C@H]3CCC(F)(F)[C@H](F)C3)c2CC1(F)F [Example 122, (4S)-5,5-difluoro-1-[(1S,3R)-3,4,4-trifluorocyclohexyl]-3-(trifluoromethyl)-4,6-dihydrocyclopenta[c]pyrazol-4-ol] | < 100 nM | > 1000 nM | 6 |
| CCC(CCn1nc(C(F)(F)F)c2c1CCC(F)(F)[C@H]2O)C(F)(F)F (stereo partly drawn) [Example 43, (4S)-5,5-difluoro-3-(trifluoromethyl)-1-[3-(trifluoromethyl)pentyl]-6,7-dihydro-4H-indazol-4-ol] | 100 to 1000 nM | > 1000 nM | 17 |
| O[C@H]1c2c(C(F)(F)F)nn(CCCC(F)(F)F)c2CC[C@@H]1F [Example 52, (4S,5S)-5-fluoro-1-(4,4,4-trifluorobutyl)-3-(trifluoromethyl)-4,5,6,7-tetrahydroindazol-4-ol] | 100 to 1000 nM | > 1000 nM | 7 |
| CO[C@H](CCn1nc(C(F)(F)F)c2c1[C@@H](F)[C@@H](F)[C@H]2O)C(F)(F)F [Example 131, (4S,5S,6R)-5,6-difluoro-1-[(3R)-4,4,4-trifluoro-3-methoxybutyl]-3-(trifluoromethyl)-5,6-dihydro-4H-cyclopenta[c]pyrazol-4-ol] | < 100 nM | < 100 nM | 2 |
| O[C@H]1c2c(C(F)(F)F)nn([C@H]3C[C@@H]4[C@H](C3)C4(F)F)c2CC1(F)F (single isomer, unassigned) [125/126 DIAST-1] | 100 to 1000 nM | > 1000 nM | 9 |
| O=S1(=O)CC(Cn2nc(C(F)(F)F)c3c2[C@@H](F)C(F)(F)[C@H]3O)C1 (single isomer, unassigned) [144/145 DIAST-2] | 100 to 1000 nM | 100 to 1000 nM | 3 |
| O[C@H]1c2c(C(F)(F)F)nn([C@H]3CCC[C@@H](F)C3)c2CC1(F)F (racemic) [90 DIAST-1, (4S)-5,5-difluoro-1-[(rel-1S,3R)-3-fluorocyclohexyl]-3-(trifluoromethyl)-4,6-dihydrocyclopenta[c]pyrazol-4-ol] | < 100 nM | 100 to 1000 nM | 6 |
| O=S(=O)(CCn1nc(C(F)(F)F)c2c1CCC(F)(F)[C@H]2O)C(F)(F)F [Example 8, (4S)-5,5-difluoro-3-(trifluoromethyl)-1-[2-(trifluoromethylsulfonyl)ethyl]-6,7-dihydro-4H-indazol-4-ol] | < 100 nM | 100 to 1000 nM | 4 |
| O[C@H]1c2c(C(F)(F)F)nn(C3CCC(F)(F)CC3)c2CC1(F)F [Example 53, (4S)-1-(4,4-difluorocyclohexyl)-5,5-difluoro-3-(trifluoromethyl)-4,6-dihydrocyclopenta[c]pyrazol-4-ol] | < 100 nM | 100 to 1000 nM | 7 |
| O[C@H]1c2c(C(F)(F)F)nn(CCCOC(F)(F)F)c2[C@@H](F)CC1(F)F (single isomer, unassigned) [129/130 DIAST-1] | 100 to 1000 nM | > 1000 nM | 18 |
| O[C@H]1c2c(C(F)(F)F)nn([C@@H]3C[C@@H](F)[C@@H](F)[C@@H](F)C3)c2[C@H](F)[C@H]1F [Example 138, (4S,5S,6S)-5,6-difluoro-1-[(3R,5S)-3,4,5-trifluorocyclohexyl]-3-(trifluoromethyl)-5,6-dihydro-4H-cyclopenta[c]pyrazol-4-ol] | < 100 nM | > 1000 nM | 9 |
| O[C@H]1c2c(C(F)(F)F)nn([C@H]3CCCC(F)(F)C3)c2[C@@H](F)[C@H]1F (single isomer, unassigned) [136/137 DIAST-1] | < 100 nM | > 1000 nM | 4 |
| O[C@H]1c2c(C(F)(F)F)nn(-c3ccc(Cl)c(Cl)c3)c2CC1(F)F [Example 118, (4S)-1-(3,4-dichlorophenyl)-5,5-difluoro-3-(trifluoromethyl)-4,6-dihydrocyclopenta[c]pyrazol-4-ol] | < 100 nM | > 1000 nM | 119 |
| O[C@H]1c2c(C(F)(F)F)nn([C@H]3CC[C@H](F)CC3)c2CC1(F)F [Example 96, (4S)-5,5-difluoro-1-(4-fluorocyclohexyl)-3-(trifluoromethyl)-4,6-dihydrocyclopenta[c]pyrazol-4-ol] | < 100 nM | > 1000 nM | 7 |
| C[C@H](C#N)CCn1nc(C(F)(F)F)c2c1C[C@@H](F)[C@H]2O [Example 83, (2S)-4-[(4S,5R)-5-fluoro-4-hydroxy-3-(trifluoromethyl)-1H,4H,5H,6H-cyclopenta[c]pyrazol-1-yl]-2-methylbutanenitrile] | 100 to 1000 nM | > 1000 nM | 3 |
| O[C@H]1c2c(C(F)(F)F)nn(CCc3ccco3)c2CC1(F)F [Example 77, (4S)-5,5-difluoro-1-[2-(furan-2-yl)ethyl]-3-(trifluoromethyl)-1H,4H,5H,6H-cyclopenta[c]pyrazol-4-ol] | < 100 nM | > 1000 nM | 10 |
| O[C@H]1c2c(C(F)(F)F)nn([C@H]3CCO[C@@H](C(F)(F)F)C3)c2[C@@H](F)[C@H]1F (single isomer, unassigned) [150/151 DIAST-1] | 100 to 1000 nM | > 1000 nM | 5 |
| O[C@H]1c2c(C(F)(F)F)nn([C@@H]3CCC(F)(F)[C@@H](F)C3)c2CC1(F)F [Example 121, (4S)-5,5-difluoro-1-[(1R,3S)-3,4,4-trifluorocyclohexyl]-3-(trifluoromethyl)-4,6-dihydrocyclopenta[c]pyrazol-4-ol] | < 100 nM | > 1000 nM | 11 |
| O[C@H]1c2c(C(F)(F)F)nn(CCCC(F)(F)F)c2CC[C@H]1F [Example 51, (4S,5R)-5-fluoro-1-(4,4,4-trifluorobutyl)-3-(trifluoromethyl)-4,5,6,7-tetrahydroindazol-4-ol] | 100 to 1000 nM | 100 to 1000 nM | 3 |
| CO[C@H]1C[C@H](n2nc(C(F)(F)F)c3c2CC(F)(F)[C@H]3O)CCC1(F)F (racemic) [Example 111, (4S)-1-[(1R,3S)-4,4-difluoro-3-methoxycyclohexyl]-5,5-difluoro-3-(trifluoromethyl)-1H,4H,5H,6H-cyclopenta[c]pyrazol-4-ol and (4S)-1-[(1S,3R)-4,4-difluoro-3-methoxycyclohexyl]-5,5-difluoro-3-(trifluoromethyl)-1H,4H,5H,6H-cyclopenta[c]pyrazol-4-ol] | < 100 nM | > 1000 nM | 9 |
| COC(C)CCn1nc(C(F)(F)F)c2c1CCC(F)(F)[C@H]2O (stereo partly drawn) [Example 13, (4S)-5,5-difluoro-1-(3-methoxybutyl)-3-(trifluoromethyl)-6,7-dihydro-4H-indazol-4-ol] | 100 to 1000 nM | 100 to 1000 nM | 2 |
| O=S1(=O)CC(Cn2nc(C(F)(F)F)c3c2[C@H](F)C(F)(F)[C@H]3O)C1 (single isomer, unassigned) [144/145 DIAST-1] | 100 to 1000 nM | > 1000 nM | 3 |
